Patent US7238689B2, “Isoxazoline derivative and herbicide comprising the same as active ingredient” (Ihara Chemical Industry Co., Ltd., priority 2001, dated 2007)

What was measured:
Format in all cases: in vivo
Design in all cases: scale not given here
[1] = system: Monochoria vaginalis (Murm. f.) Presl var. plantaginea (Roxb.) Solms-Laub.; experiment: Herbicidal effect by paddy field soil treatment; details: wettable powder, active ingredient 1000 g/ha, examined at the 21st day from the treatment
Procedure: (§1) A paddy field soil was filled in a plastic pot of 100 cm^2 and subjected to puddling. Then, seeds of Echinochloa oryzicola Vasing and Monochoria vaginalis (Murm. f.) Presl var. plantaginea (Roxb.) Solms-Laub. were sowed and water was filled in a depth of 3 cm. Next day, wettable powders produced in accordance with the Formulation 1 were diluted with water and dropped on the water surface. The application amount of each wettable powder was 1,000 g per 1 hectare in terms of the active ingredient. Then, breeding was made in a greenhouse, and the herbicidal effect of each wettable powder was examined at the 21st day from the treatment in accordance with the standard shown in Table 21.

[2] = system: Echinochloa oryzicola Vasing; experiment: Herbicidal effect by paddy field soil treatment; details: wettable powder, active ingredient 1000 g/ha, examined at the 21st day from the treatment
Procedure: as §1

[3] = system: Echinochloa crus-galli (L.) Beauv. var. crusgalli; experiment: Herbicidal effect by upland field soil treatment; details: active ingredient 1000 g/ha, examined at 21st day from treatment
Description: (§2) An upland field soil was filled in a plastic pot of 80 cm^2. Seeds of Echinochloa crus-galli (L.) Beauv. var. crusgalli and Setaria viridis (L.) Beauv. were sowed, followed by covering with the same soil. […] Then, breeding was made in a greenhouse, and the herbicidal effect of each wettable powder was examined at the 21st day from the treatment in accordance with the standard shown in Table 21.

[4] = system: Setaria viridis (L.) Beauv.; experiment: Herbicidal effect by upland field soil treatment; details: active ingredient 1000 g/ha, examined at 21st day from treatment
Description: as §2

Compound: CC(C)C(SC1=NOC(C)(C)C1)c1cncnc1C(F)(F)F (racemic) [8-0012]
- Herbicidal effect index, Monochoria vaginalis (Burm. F.) Presl var. plantaginea (Roxb.) Solms-Laub. [1]: 5
- Herbicidal effect index, Echinochloa oryzicola Vasing [2]: 5

Compound: CC1(C)CC(S(=O)(=O)Cc2ccco2)=NO1 [1-0006]
- herbicidal effect (index per standard of Table 21), Echinochloa curs-galli (L.) Beauv. Var. crus-galli [3]: 5
- herbicidal effect (index per standard of Table 21), Setaria viridis (L.) Beauv. [4]: 4

Compound: Cc1sc(C)c(CS(=O)(=O)C2=NOC(C)(C)C2)c1C [2-0007]
- herbicidal effect (index per standard of Table 21), Echinochloa curs-galli (L.) Beauv. Var. crus-galli [3]: 4
- herbicidal effect (index per standard of Table 21), Setaria viridis (L.) Beauv. [4]: 4

Compound: Cn1nc(C(F)F)c(CSC2=NOC(C)(C)C2)c1Cl [3-0020, 3-(5-chloro-3-difluoromethyl-1-methyl-1H-pyrazol-4-ylmethylthio)-5,5-dimethyl-2-isoxazoline]
- herbicidal effect (index per standard of Table 21), Echinochloa curs-galli (L.) Beauv. Var. crus-galli [3]: 5
- herbicidal effect (index per standard of Table 21), Setaria viridis (L.) Beauv. [4]: 5

Compound: COc1nn(C)c(C(F)(F)F)c1CS(=O)(=O)C1=NOC(C)(C)C1 [3-0043]
- herbicidal effect (index per standard of Table 21), Echinochloa curs-galli (L.) Beauv. Var. crus-galli [3]: 5
- herbicidal effect (index per standard of Table 21), Setaria viridis (L.) Beauv. [4]: 5

Compound: CCCCOc1c(CS(=O)(=O)C2=NOC(C)(C)C2)c(C(F)(F)F)nn1C [3-0048]
- herbicidal effect (index per standard of Table 21), Echinochloa curs-galli (L.) Beauv. Var. crus-galli [3]: 5
- herbicidal effect (index per standard of Table 21), Setaria viridis (L.) Beauv. [4]: 5

Compound: Cn1nc(C(F)(F)F)c(CS(=O)(=O)C2=NOC(C)(C)C2)c1OCC1CC1 [3-0050]
- herbicidal effect (index per standard of Table 21), Echinochloa curs-galli (L.) Beauv. Var. crus-galli [3]: 5
- herbicidal effect (index per standard of Table 21), Setaria viridis (L.) Beauv. [4]: 5

Compound: Cn1nc(C(F)(F)F)c(CS(=O)(=O)C2=NOC(C)(C)C2)c1OCC1CCCC1 [3-0051]
- Herbicidal effect index, Monochoria vaginalis (Burm. F.) Presl var. plantaginea (Roxb.) Solms-Laub. [1]: 5
- Herbicidal effect index, Echinochloa oryzicola Vasing [2]: 5

Compound: C#CCOc1c(CS(=O)(=O)C2=NOC(C)(C)C2)c(C(F)(F)F)nn1C [3-0053]
- herbicidal effect (index per standard of Table 21), Echinochloa curs-galli (L.) Beauv. Var. crus-galli [3]: 5
- herbicidal effect (index per standard of Table 21), Setaria viridis (L.) Beauv. [4]: 5

Compound: Cn1nc(C(F)(F)F)c(CS(=O)(=O)C2=NOC(C)(C)C2)c1OCC(F)F [3-0056]
- herbicidal effect (index per standard of Table 21), Echinochloa curs-galli (L.) Beauv. Var. crus-galli [3]: 5
- herbicidal effect (index per standard of Table 21), Setaria viridis (L.) Beauv. [4]: 5

Compound: Cn1nc(C(F)(F)F)c(CS(=O)(=O)C2=NOC(C)(C)C2)c1Oc1cccc(Cl)c1 [3-0061]
- Herbicidal effect index, Monochoria vaginalis (Burm. F.) Presl var. plantaginea (Roxb.) Solms-Laub. [1]: 5
- Herbicidal effect index, Echinochloa oryzicola Vasing [2]: 5

Compound: Cn1nc(C(F)(F)F)c(CS(=O)(=O)C2=NOC(C)(C)C2)c1Oc1ccc(Cl)cc1 [3-0063]
- herbicidal effect (index per standard of Table 21), Echinochloa curs-galli (L.) Beauv. Var. crus-galli [3]: 5
- herbicidal effect (index per standard of Table 21), Setaria viridis (L.) Beauv. [4]: 5

Compound: CC1(C)CC(S(=O)(=O)Cc2c(C(F)(F)F)nn(C3CCCC3)c2Cl)=NO1 [3-0089]
- Herbicidal effect index, Monochoria vaginalis (Burm. F.) Presl var. plantaginea (Roxb.) Solms-Laub. [1]: 5
- Herbicidal effect index, Echinochloa oryzicola Vasing [2]: 5

Compound: CC1(C)CC(S(=O)(=O)Cc2c(Cl)nn(C3CCCC3)c2C(F)(F)F)=NO1 [3-0090]
- Herbicidal effect index, Monochoria vaginalis (Burm. F.) Presl var. plantaginea (Roxb.) Solms-Laub. [1]: 5
- Herbicidal effect index, Echinochloa oryzicola Vasing [2]: 5

Compound: CC1(C)CC(S(=O)(=O)Cc2c(C(F)(F)F)nn(CC3CCCC3)c2Cl)=NO1 [3-0100]
- Herbicidal effect index, Monochoria vaginalis (Burm. F.) Presl var. plantaginea (Roxb.) Solms-Laub. [1]: 5
- Herbicidal effect index, Echinochloa oryzicola Vasing [2]: 5

Compound: CC1(C)CC(S(=O)(=O)Cc2c(Cl)nn(CC3CCCC3)c2C(F)(F)F)=NO1 [3-0101]
- Herbicidal effect index, Monochoria vaginalis (Burm. F.) Presl var. plantaginea (Roxb.) Solms-Laub. [1]: 5
- Herbicidal effect index, Echinochloa oryzicola Vasing [2]: 5

Compound: CC1(C)CC(S(=O)(=O)Cc2c(C(F)(F)F)nn(CC3CCCCC3)c2Cl)=NO1 [3-0102]
- Herbicidal effect index, Monochoria vaginalis (Burm. F.) Presl var. plantaginea (Roxb.) Solms-Laub. [1]: 5
- Herbicidal effect index, Echinochloa oryzicola Vasing [2]: 5

Compound: CC1(C)CC(S(=O)(=O)Cc2c(Cl)nn(CC3CCCCC3)c2C(F)(F)F)=NO1 [3-0103]
- Herbicidal effect index, Monochoria vaginalis (Burm. F.) Presl var. plantaginea (Roxb.) Solms-Laub. [1]: 5
- Herbicidal effect index, Echinochloa oryzicola Vasing [2]: 5

Compound: CCOC(=O)Cn1nc(C(F)(F)F)c(CS(=O)(=O)C2=NOC(C)(C)C2)c1Cl [3-0136]
- herbicidal effect (index per standard of Table 21), Echinochloa curs-galli (L.) Beauv. Var. crus-galli [3]: 5
- herbicidal effect (index per standard of Table 21), Setaria viridis (L.) Beauv. [4]: 5

Compound: CC1(C)CC(S(=O)(=O)Cc2c(C(F)(F)F)nn(CC(N)=O)c2Cl)=NO1 [3-0138]
- herbicidal effect (index per standard of Table 21), Echinochloa curs-galli (L.) Beauv. Var. crus-galli [3]: 4
- herbicidal effect (index per standard of Table 21), Setaria viridis (L.) Beauv. [4]: 5

Compound: CC(=O)Cn1nc(C(F)(F)F)c(CS(=O)(=O)C2=NOC(C)(C)C2)c1Cl [3-0142]
- herbicidal effect (index per standard of Table 21), Echinochloa curs-galli (L.) Beauv. Var. crus-galli [3]: 5
- herbicidal effect (index per standard of Table 21), Setaria viridis (L.) Beauv. [4]: 5

Compound: CC(=O)Cn1nc(Cl)c(CS(=O)(=O)C2=NOC(C)(C)C2)c1C(F)(F)F [3-0143]
- herbicidal effect (index per standard of Table 21), Echinochloa curs-galli (L.) Beauv. Var. crus-galli [3]: 5
- herbicidal effect (index per standard of Table 21), Setaria viridis (L.) Beauv. [4]: 5

Compound: CC1(C)CC(S(=O)(=O)Cc2c(C(F)(F)F)nn(-c3ccccc3)c2OC(F)F)=NO1 [3-0160]
- Herbicidal effect index, Monochoria vaginalis (Burm. F.) Presl var. plantaginea (Roxb.) Solms-Laub. [1]: 5
- Herbicidal effect index, Echinochloa oryzicola Vasing [2]: 5

Compound: CC1(C)CC(S(=O)(=O)Cc2c(C(F)(F)F)nn(S(=O)(=O)c3ccccc3)c2Cl)=NO1 [3-0176]
- Herbicidal effect index, Monochoria vaginalis (Burm. F.) Presl var. plantaginea (Roxb.) Solms-Laub. [1]: 5
- Herbicidal effect index, Echinochloa oryzicola Vasing [2]: 5

Compound: CC(=O)n1nc(C(F)(F)F)c(CS(=O)(=O)C2=NOC(C)(C)C2)c1Cl [3-0177]
- Herbicidal effect index, Monochoria vaginalis (Burm. F.) Presl var. plantaginea (Roxb.) Solms-Laub. [1]: 5
- Herbicidal effect index, Echinochloa oryzicola Vasing [2]: 5

Compound: CC1(C)CC(S(=O)(=O)Cc2c(C(F)(F)F)nn(C(=O)c3ccccc3)c2Cl)=NO1 [3-0178]
- Herbicidal effect index, Monochoria vaginalis (Burm. F.) Presl var. plantaginea (Roxb.) Solms-Laub. [1]: 5
- Herbicidal effect index, Echinochloa oryzicola Vasing [2]: 5

Compound: Cc1onc(C(F)(F)F)c1CS(=O)(=O)C1=NOC(C)(C)C1 [4-0001, 5,5-dimethyl-3-(5-methyl-3-trifluoromethylisoxazol-4-ylmehtylsulfonyl)-2-isoxazoline]
- Herbicidal effect index, Monochoria vaginalis (Burm. F.) Presl var. plantaginea (Roxb.) Solms-Laub. [1]: 5
- Herbicidal effect index, Echinochloa oryzicola Vasing [2]: 5

Compound: CCOc1onc(C(F)(F)F)c1CS(=O)(=O)C1=NOC(C)(C)C1 [4-0006]
- herbicidal effect (index per standard of Table 21), Echinochloa curs-galli (L.) Beauv. Var. crus-galli [3]: 5
- herbicidal effect (index per standard of Table 21), Setaria viridis (L.) Beauv. [4]: 5

Compound: CC1(C)CC(S(=O)(=O)Cc2nn(C(F)F)c3c2CCCC3)=NO1 [6-0001]
- herbicidal effect (index per standard of Table 21), Echinochloa curs-galli (L.) Beauv. Var. crus-galli [3]: 5
- herbicidal effect (index per standard of Table 21), Setaria viridis (L.) Beauv. [4]: 5

Compound: CC1(C)CC(S(=O)(=O)Cc2c[n+]([O-])ccc2C(F)(F)F)=NO1 [7-0002, 5,5-dimethyl-3-(4-trifluoromethyl-pyridine-N-oxide-3-ylmethylsulfonyl)-2-isoxazoline]
- herbicidal effect (index per standard of Table 21), Echinochloa curs-galli (L.) Beauv. Var. crus-galli [3]: 5
- herbicidal effect (index per standard of Table 21), Setaria viridis (L.) Beauv. [4]: 5

Compound: COc1c(CS(=O)(=O)C2=NOC(C)(C)C2)c(-c2ccccc2)cc[n+]1[O-] [7-0007]
- herbicidal effect (index per standard of Table 21), Echinochloa curs-galli (L.) Beauv. Var. crus-galli [3]: 5
- herbicidal effect (index per standard of Table 21), Setaria viridis (L.) Beauv. [4]: 4

Compound: CCOc1ncnc(C(F)(F)F)c1CS(=O)(=O)C1=NOC(C)(C)C1 [8-0004]
- herbicidal effect (index per standard of Table 21), Echinochloa curs-galli (L.) Beauv. Var. crus-galli [3]: 5
- herbicidal effect (index per standard of Table 21), Setaria viridis (L.) Beauv. [4]: 5

Compound: COc1ncnc(OC)c1CS(=O)(=O)C1=NOC(C)(C)C1 [8-0005]
- herbicidal effect (index per standard of Table 21), Echinochloa curs-galli (L.) Beauv. Var. crus-galli [3]: 5
- herbicidal effect (index per standard of Table 21), Setaria viridis (L.) Beauv. [4]: 4

Compound: COc1nc(OC)c(CS(=O)(=O)C2=NOC(C)(C)C2)c(C(F)(F)F)n1 [8-0007]
- herbicidal effect (index per standard of Table 21), Echinochloa curs-galli (L.) Beauv. Var. crus-galli [3]: 5
- herbicidal effect (index per standard of Table 21), Setaria viridis (L.) Beauv. [4]: 5

Compound: CC1(C)CC(S(=O)(=O)Cc2ccncc2)=NO1 [9-0003]
- Herbicidal effect index, Monochoria vaginalis (Burm. F.) Presl var. plantaginea (Roxb.) Solms-Laub. [1]: 5
- Herbicidal effect index, Echinochloa oryzicola Vasing [2]: 5

Compound: CC1(C)CC(S(=O)(=O)Cc2nc(Cc3ccccc3)no2)=NO1 [9-0007]
- herbicidal effect (index per standard of Table 21), Echinochloa curs-galli (L.) Beauv. Var. crus-galli [3]: 4
- herbicidal effect (index per standard of Table 21), Setaria viridis (L.) Beauv. [4]: 4

Compound: CC1(C)CC(S(=O)(=O)Cc2cc3ccccc3s2)=NO1 [10-0002]
- Herbicidal effect index, Monochoria vaginalis (Burm. F.) Presl var. plantaginea (Roxb.) Solms-Laub. [1]: 4
- Herbicidal effect index, Echinochloa oryzicola Vasing [2]: 5

Compound: CC1(C)CC(S(=O)(=O)Cc2csc3ccc(Cl)cc23)=NO1 [10-0008]
- Herbicidal effect index, Monochoria vaginalis (Burm. F.) Presl var. plantaginea (Roxb.) Solms-Laub. [1]: 5
- Herbicidal effect index, Echinochloa oryzicola Vasing [2]: 5
